Columns and labels:
[1] = octanol/water partition coefficient (log P) by TNBS assay; format: physicochemical; settings: octanol/water mixture 1:1 v/v; mean, n = 3
Method: Log P of Arg and both Arg-esters were determined using an already described method.[15] Each compound was dissolved in an octanol/water mixture (1:1, v/v). Afterward, octanol and water phases were separated by a high-speed mini centrifuge (Fisher Scientific, Illinois USA), and the concentration of each compound in each phase was determined by the TNBS assay. For this, a 50 μL volume from each phase was diluted 10 times with 0.1 M sodium bicarbonate (pH 8.5) containing 40% (v/v) isopropyl alcohol. After dilution, 250 μL of the TNBS reagent (0.01%, v/v) prepared in 0.1 M sodium bicarbonate (pH 8.5) was added to each sample that was incubated at 37 °C. After 2 h, the reaction was stopped by adding 250 μL of 10% (m/v) SDS and 125 μL of 1 M HCl. The absorbance of each sample was measured at 335 nm using a Spark multifunctional microplate reader (Tecan Austria, GmbH). The logarithm of the octanol/water absorbance ratio was expressed as log P for each sample.

[2] = tested on: Enterococcus faecalis ATCC 19433; assay: MIC testing by the microdilution method; format: cell-based; settings: Enterococcus faecalis, ATCC19433, read-out: minimum inhibitory concentration
Method: (§1) Following bacterial strains were used for antimicrobial susceptibility testing: Escherichia coli ATCC 25922, Staphylococcus aureus ATCC 29213, Bacillus subtilis ATCC 6633, and Enterococcus faecalis ATCC 19433, which were obtained from the American Type Culture Collection (ATCC, Virginia, USA).
(§2) The MIC is the lowest concentration of a substance that leads to a clearly visible growth inhibition after a defined incubation period. To evaluate the MIC of Arg-DT, Arg-OL, BAC, and cetrimide, a microdilution test was performed according to the guidelines of the Clinical and Laboratory Standards Institute.[19] First of all, similarly, as for the disk diffusion test, microorganisms were dissolved in saline and set to a 0.5 McFarland standard turbidity. This corresponds to a bacterial concentration of 1.5 × 10^8 colony-forming units per milliliter (CFU mL^–1); 50 μL of the bacterial suspension was added to 10 mL of Mueller Hinton Bouillon (MHB, Becton Dickinson, New Jersey, USA). The stock solutions were prepared as follows: the test compounds Arg-OL, Arg-DT, BAC, and cetrimide were dissolved in water with 10% (v/v) DMSO at a concentration of 10 mg mL^–1. The obtained solutions were used to prepare serial dilutions. The tested concentration for each substance ranged from 5000 to 5 μg mL^–1. Each test sample was added to a flat-bottomed tissue plate well in the volume of 75 μL. The first well of the tissue plate containing 75 μL of water with 10% (v/v) DMSO instead of any test sample was used as a positive control. Finally, 75 μL of the bacterial suspension was added to each well, and the plates were incubated at 37 °C overnight.
(§3) Before measuring the optical density (OD), plates were shaken for 15 min at 250 rpm. The OD was measured using the Bio-Rad 680 microplate reader (Hercules, California, USA) at a wavelength of 490 nm. Inhibition of bacterial growth was defined as a reduction of growth for at least 5 log units. Experiments were performed three times under analogous conditions for each bacterial strain and each tested sample.

[3] = tested on: Bacillus subtilis ATCC 6633; assay: MIC testing by the microdilution method; format: cell-based; settings: Bacillus subtilis, ATCC6633, read-out: minimum inhibitory concentration
Method: as §1, §2, §3

[4] = tested on: Staphylococcus aureus ATCC 29213; assay: MIC testing by the microdilution method; format: cell-based; settings: Staphylococcus aureus, ATCC29213, read-out: minimum inhibitory concentration
Method: as §1, §2, §3

[5] = tested on: Escherichia coli ATCC 25922; assay: MIC testing by the microdilution method; format: cell-based; settings: Escherichia coli, ATCC25922, read-out: minimum inhibitory concentration
Method: as §1, §2, §3

red blood cells (RBC) = assay: hemolysis study; format: cell-based; settings: human RBC, 1 h, 37 °C, PBS pH 7.4
Method: The hemolysis test was performed with red blood cells (RBC) to evaluate the potential toxic effect of Arg-surfactants on human cells.[18] Human RBC concentrate was kindly donated by the Tirol Kliniken GmbH, Innsbruck, Austria, and stored at 4 °C until use. RBC concentrate (0.556 mL) was freshly diluted by adding sterile Dulbecco’s PBS (pH 7.4) (1.944 mL) before the test to obtain an equivalent amount of whole blood (EWB). Then EWB was 50 times diluted in sterile Dulbecco’s PBS (pH 7.4). The diluted blood on visual inspection was turbid and settled down upon leaving undisturbed, indicating no cell lysis. Arg-surfactant stock solutions were prepared in the concentration range of 10–5000 μg mL^–1 in PBS. For comparison, BAC and cetrimide solutions were prepared in the same concentration range in PBS. For the assay, 10 μL of each test sample was mixed with 190 μL of diluted blood, resulting in the testing final concentrations of 0.5–250 μg mL^–1. For the positive control, 10 μL of 20% v/v Triton X-100 and, for the negative control, 10 μL of sterile Dulbecco’s PBS were mixed with 190 μL of diluted blood. All samples and controls were incubated for 1 h at 37 °C with shaking. After centrifugation at 10 000 rpm for 60 s, aliquots of 100 μL were withdrawn from the supernatants and transferred to a 96-well plate. Absorbance was measured at a wavelength of 420 nm. The extent of hemolysis as a percentage was determined by using the following equation: [drawing 6]

**Q.** For CCCCCCCCC=CCCCCCCCCOC(=O)[C@@H](N)CCCNC(=N)N.O=C(O)C(F)(F)F [Arg-OL, Octadec-9-en-1-yl Argininate Trifluoroacetate], which logP [1] is on record?
**A.** The logP was 0.3.

**Q.** What about the MIC [2] of the same molecule?
**A.** The MIC was 5 µg/mL.

**Q.** What about the MIC [3] of the same molecule?
**A.** The MIC was 5 µg/mL.

**Q.** What about the MIC [4] of the same molecule?
**A.** The MIC was 10 µg/mL.

**Q.** What about the MIC [5] of the same molecule?
**A.** The MIC was 20 µg/mL.

**Q.** What about the “HC50 (concentration causing lysis of 50% red blood cells)” value (red blood cells (RBC)) of the same molecule?
**A.** Its value is 60 μg mL^–1.

**Q.** With CCCCCCCCCCCCC(CCCCCCCCCC)COC(=O)[C@@H](N)CCCNC(=N)N.O=C(O)C(F)(F)F (stereo partly drawn) [Arg-DT, 2-Decyltetradecyl Argininate Trifluoroacetate] as the molecule, how does the logP [1] read?
**A.** The logP was 0.6.

**Q.** What about the MIC [2] of the same molecule?
**A.** The MIC was 10 µg/mL.

**Q.** What about the MIC [3] of the same molecule?
**A.** Its MIC is 5 µg/mL.

**Q.** What about the MIC [4] of the same molecule?
**A.** The MIC was 10 µg/mL.

**Q.** What about the MIC [5] of the same molecule?
**A.** The MIC was 39 µg/mL.

**Q.** And the “HC50 (concentration causing lysis of 50% red blood cells)” value (red blood cells (RBC))?
**A.** The value was 125 μg mL^–1.
